What was measured:
[1] = target: T1, 5-hydroxytryptamine receptor 1A (Homo sapiens, UniProt P08908); experiment: Displacement of [3H]8-OH-DPAT from human 5-hydroxytryptamine 1A receptor expressed in CHO cells; format: cell-based
T1 sequence (P08908 whole entry): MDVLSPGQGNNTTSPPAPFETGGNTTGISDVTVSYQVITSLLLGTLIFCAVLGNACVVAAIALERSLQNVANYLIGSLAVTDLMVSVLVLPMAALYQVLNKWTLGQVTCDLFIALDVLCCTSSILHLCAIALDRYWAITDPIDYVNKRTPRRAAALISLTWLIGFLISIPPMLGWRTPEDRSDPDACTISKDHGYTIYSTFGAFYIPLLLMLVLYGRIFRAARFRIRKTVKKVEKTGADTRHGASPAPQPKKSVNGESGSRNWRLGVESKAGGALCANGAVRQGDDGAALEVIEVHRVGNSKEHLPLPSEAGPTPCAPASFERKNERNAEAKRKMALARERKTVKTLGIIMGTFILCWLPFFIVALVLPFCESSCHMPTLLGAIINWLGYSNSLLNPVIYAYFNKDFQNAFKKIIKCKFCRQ

[2] = target: T2, 5-hydroxytryptamine receptor 1A (Homo sapiens) (UniProt P08908); experiment: (§1) Agonistic activity of compound towards 5-hydroxytryptamine 1A receptor was evaluated by [35S]GTP-gamma-S, stimulated cAMP assay; format: functional
T2 sequence (whole entry): T1 sequence (P08908 whole entry)

[3] = target: T3, Adrenergic receptor alpha-1 (Rattus norvegicus, UniProt P15823+P23944+P43140); experiment: Displacement of [3H]prazosin from alpha-1 adrenergic receptor; format: protein assay
T3 sequence (P15823 whole entry): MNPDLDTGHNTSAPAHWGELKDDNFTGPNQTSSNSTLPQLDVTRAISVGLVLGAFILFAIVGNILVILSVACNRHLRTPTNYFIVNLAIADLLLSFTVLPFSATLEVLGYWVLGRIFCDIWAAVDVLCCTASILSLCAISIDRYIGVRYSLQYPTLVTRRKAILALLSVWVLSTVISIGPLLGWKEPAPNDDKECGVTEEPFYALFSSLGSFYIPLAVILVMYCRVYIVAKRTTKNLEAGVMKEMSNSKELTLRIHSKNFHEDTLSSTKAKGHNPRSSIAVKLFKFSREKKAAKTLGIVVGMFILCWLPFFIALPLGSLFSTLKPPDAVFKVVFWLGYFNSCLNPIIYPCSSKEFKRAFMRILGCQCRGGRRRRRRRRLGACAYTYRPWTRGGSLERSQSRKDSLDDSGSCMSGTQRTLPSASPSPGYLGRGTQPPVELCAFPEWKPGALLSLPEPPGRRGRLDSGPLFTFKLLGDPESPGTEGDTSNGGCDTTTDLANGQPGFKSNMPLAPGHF
T3 sequence (P23944 whole entry): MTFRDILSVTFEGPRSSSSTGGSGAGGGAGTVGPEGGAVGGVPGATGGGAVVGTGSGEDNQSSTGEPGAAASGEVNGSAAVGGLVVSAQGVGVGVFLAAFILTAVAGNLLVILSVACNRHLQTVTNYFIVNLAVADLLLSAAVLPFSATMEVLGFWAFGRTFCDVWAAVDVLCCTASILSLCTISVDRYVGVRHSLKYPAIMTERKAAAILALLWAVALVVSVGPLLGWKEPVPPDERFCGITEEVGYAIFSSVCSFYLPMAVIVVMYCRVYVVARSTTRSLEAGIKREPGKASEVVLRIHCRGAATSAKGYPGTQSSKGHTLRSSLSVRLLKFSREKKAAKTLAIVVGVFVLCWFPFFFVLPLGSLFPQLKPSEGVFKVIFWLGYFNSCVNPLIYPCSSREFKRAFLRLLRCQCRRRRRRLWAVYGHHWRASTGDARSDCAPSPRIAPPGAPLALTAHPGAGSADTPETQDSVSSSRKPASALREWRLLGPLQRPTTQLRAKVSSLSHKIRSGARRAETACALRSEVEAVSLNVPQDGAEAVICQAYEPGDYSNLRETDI
T3 sequence (P43140 whole entry): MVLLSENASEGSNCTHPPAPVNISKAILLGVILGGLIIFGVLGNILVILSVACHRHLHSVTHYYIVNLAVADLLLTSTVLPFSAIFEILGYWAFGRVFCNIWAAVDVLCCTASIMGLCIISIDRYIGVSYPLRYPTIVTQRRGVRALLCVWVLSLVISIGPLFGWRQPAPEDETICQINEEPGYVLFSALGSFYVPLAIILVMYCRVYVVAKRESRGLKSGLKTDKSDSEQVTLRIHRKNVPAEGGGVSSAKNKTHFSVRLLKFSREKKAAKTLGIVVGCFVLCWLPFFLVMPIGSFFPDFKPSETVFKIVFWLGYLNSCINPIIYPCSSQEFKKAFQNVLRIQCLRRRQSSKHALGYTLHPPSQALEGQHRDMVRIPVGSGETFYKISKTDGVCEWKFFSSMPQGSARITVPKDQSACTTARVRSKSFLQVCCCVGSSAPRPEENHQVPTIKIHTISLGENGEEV

[4] = target: Sodium-dependent serotonin transporter (Rattus norvegicus) (UniProt P31652); experiment: Inhibition of serotonin transporter; set-up: concentration or dose not given beside the values; conditions: concentration not given here
[5] = target: T1, 5-hydroxytryptamine receptor 1A; experiment: as §1; format: functional
[6] = target: T1, 5-hydroxytryptamine receptor 1A; experiment: Agonistic activity of compound towards 5-hydroxytryptamine 1A receptor was evaluated by forskolin stimulated cAMP assay; format: functional
[7] = target: Adrenergic receptor alpha-1 (Homo sapiens) (UniProt P35348+P25100+P35368); experiment: Inhibition of [3H]prazosin binding to alpha-1 adrenergic receptor at 100 nM compound concentration; format: protein assay
[8] = target: T4, Sodium-dependent serotonin transporter (Homo sapiens, UniProt P31645); experiment: Inhibitory activity of compound against serotonin transport by RB5-5-HT transporter
[9] = target: T4, Sodium-dependent serotonin transporter; experiment: Inhibitory activity of compound against serotonin transport by HC5-5-HT transporter
[10] = target: T2, 5-hydroxytryptamine receptor 1A (Homo sapiens); experiment: Inhibition of [3H]8-OH-DPAT binding to human 5-hydroxytryptamine 1A receptor at 1000 nM compound concentration

Sodium-dependent serotonin transporter (Rattus norvegicus), sequence (P31652 whole entry): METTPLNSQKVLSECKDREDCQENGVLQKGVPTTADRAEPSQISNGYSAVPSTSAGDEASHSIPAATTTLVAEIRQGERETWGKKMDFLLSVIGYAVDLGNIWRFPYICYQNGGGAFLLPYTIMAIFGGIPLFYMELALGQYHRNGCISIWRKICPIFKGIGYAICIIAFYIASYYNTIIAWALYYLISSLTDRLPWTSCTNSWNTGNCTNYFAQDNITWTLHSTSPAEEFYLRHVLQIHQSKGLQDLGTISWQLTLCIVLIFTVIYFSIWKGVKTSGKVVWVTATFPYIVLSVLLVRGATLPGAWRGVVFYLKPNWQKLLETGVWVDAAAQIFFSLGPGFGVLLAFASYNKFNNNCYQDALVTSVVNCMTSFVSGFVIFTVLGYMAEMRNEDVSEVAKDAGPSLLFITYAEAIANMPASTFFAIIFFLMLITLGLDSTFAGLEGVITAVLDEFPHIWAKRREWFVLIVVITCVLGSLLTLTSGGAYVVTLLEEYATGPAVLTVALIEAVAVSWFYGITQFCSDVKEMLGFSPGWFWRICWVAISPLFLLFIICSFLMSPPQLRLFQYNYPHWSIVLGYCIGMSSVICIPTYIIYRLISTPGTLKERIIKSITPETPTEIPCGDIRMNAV
T4 sequence (P31645 whole entry): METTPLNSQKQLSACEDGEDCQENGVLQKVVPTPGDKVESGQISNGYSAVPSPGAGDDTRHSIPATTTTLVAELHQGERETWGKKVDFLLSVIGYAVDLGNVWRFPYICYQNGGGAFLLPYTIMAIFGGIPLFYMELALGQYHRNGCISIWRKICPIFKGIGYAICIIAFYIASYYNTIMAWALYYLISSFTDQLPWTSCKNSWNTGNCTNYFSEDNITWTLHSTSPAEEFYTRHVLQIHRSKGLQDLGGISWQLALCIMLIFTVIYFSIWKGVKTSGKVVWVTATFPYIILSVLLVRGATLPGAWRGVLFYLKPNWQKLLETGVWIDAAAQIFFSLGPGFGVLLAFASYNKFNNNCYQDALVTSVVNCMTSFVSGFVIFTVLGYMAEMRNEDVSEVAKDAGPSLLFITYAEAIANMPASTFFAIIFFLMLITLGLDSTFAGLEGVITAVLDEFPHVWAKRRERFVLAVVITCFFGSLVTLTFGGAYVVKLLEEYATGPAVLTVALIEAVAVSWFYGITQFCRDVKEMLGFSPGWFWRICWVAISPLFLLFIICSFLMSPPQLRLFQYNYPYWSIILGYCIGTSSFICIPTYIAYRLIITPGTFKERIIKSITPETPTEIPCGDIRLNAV

Compound	Ki [1]	Emax [2]	Ki [3]	inhibition [4]	IC50 [5]	IC50 [6]	Imax [2]	inhibition [7]	Ki [8]	IC50 [9]	inhibition [10]
COc1cccc2c1O[C@@H](CN1[C@@H]3CC[C@H]1C[C@](O)(c1cccc(C(F)(F)F)c1)C3)CO2	0.33 nM	90%	9.9 nM	9%	–	–	–	–	–	–	–
CCOc1cccc2c1O[C@@H](CN1[C@@H]3CC[C@H]1C[C@](O)(c1ccccc1)C3)CO2	3.05 nM	–	32.7 nM	0%	–	–	–	–	–	–	–
COc1ccccc1[C@]1(O)C[C@H]2CC[C@@H](C1)N2C[C@H]1COc2cccc(OC)c2O1	39 nM	40%	–	12%	–	–	–	–	–	–	–
CCOc1cccc2c1O[C@@H](CN1[C@@H]3CC[C@H]1C[C@](O)(c1cccc(C(F)(F)F)c1)C3)CO2	2.92 nM	–	12.9 nM	0%	–	–	–	–	–	–	–
COc1cccc2c1O[C@@H](CN1[C@@H]3CC[C@H]1C[C@](O)(c1csc4ccccc14)C3)CO2	1.6 nM	0%	106 nM	0%	36 nM	130 nM	92%	–	–	–	–
COc1cccc2c1O[C@@H](CN1[C@@H]3CC[C@H]1C[C@](O)(c1ccc4ccccc4c1)C3)CO2	0.81 nM	–	42 nM	–	9.85 nM	21 nM	100%	–	–	–	–
COc1cccc2c1O[C@@H](CN1[C@@H]3CC[C@H]1C[C@](O)(c1ccccc1)C3)CO2	1.53 nM	–	–	0%	25 nM	21 nM	100%	–	–	–	–
COc1cccc2c1O[C@@H](CN1C3C=C(c4cccc5ccccc45)CC1CC3)CO2 (stereo partly drawn)	357 nM	–	–	–	–	–	–	26%	26 nM	951 nM	–
COc1cccc2c1O[C@@H](CN1[C@@H]3CC[C@H]1C[C@](O)(c1ccccn1)C3)CO2	46 nM	–	–	0%	1480 nM	–	100%	–	–	–	–
COc1cccc2c1O[C@@H](CN1C3C=C(c4ccc5ccccc5c4)CC1CC3)CO2 (stereo partly drawn)	–	–	229 nM	–	–	–	–	–	1.4 nM	767 nM	43%
COc1cccc2c1O[C@@H](CN1C3C=C(n4ccc5cc(F)ccc54)CC1CC3)CO2 (stereo partly drawn)	128 nM	–	71 nM	–	–	–	–	–	8.5 nM	138 nM	–
COc1cccc2c1O[C@@H](CN1C3C=C(c4ccc(Cl)c(Cl)c4)CC1CC3)CO2 (stereo partly drawn)	–	–	> 1000 nM	–	–	–	–	–	4.69 nM	260 nM	35%
CCOc1cccc2c1O[C@@H](CN1[C@@H]3CC[C@H]1C[C@](O)(c1csc4ccccc14)C3)CO2	16.7 nM	–	123.5 nM	4%	–	–	–	–	–	–	–
CCOc1cccc2c1O[C@@H](CN1[C@@H]3CC[C@H]1C[C@](O)(c1ccc4ccccc4c1)C3)CO2	5.87 nM	–	103.5 nM	0%	–	–	–	–	–	–	–
CCOc1cccc2c1O[C@@H](CN1[C@@H]3CC[C@H]1C[C@](O)(c1ccccn1)C3)CO2	61.6 nM	–	147 nM	6%	–	–	–	–	–	–	–
COc1cccc2c1O[C@@H](CN1C3C=C(c4cccc5cccnc45)CC1CC3)CO2 (stereo partly drawn)	307 nM	–	46.2 nM	–	–	–	–	–	33 nM	109 nM	–
